{"source": "paper PMC3162579", "about": "(Fluids and Barriers of the CNS, 2011)", "key": {"[1]": {"tested_on": "brain-to-blood [^125I]hAβ(1-40) efflux transport across the BBB", "assay": "Brain Efflux Index (BEI) study: elimination of [^125I]hAβ(1-40) after intracerebral microinjection", "type": "in vivo", "details": "for decrease of percentage of [^125I]hAβ(1-40) remaining in ipsilateral cerebrum versus vehicle-treated control: n = 5; for effect on percentage of [^125I]hAβ(1-40) remaining versus vehicle-treated control: single i.p. 1 μg/mouse", "description": "Control mice were injected i.p. with 100 μL of each vehicle solution. After an indicated time (24, 48, or 72 h), the in vivo brain elimination experiments were performed using the intracerebral microinjection technique. Briefly, mice were anesthetized with an intramuscular injection of xylazine (1.22 mg/kg) and ketamine (125 mg/kg), and placed in a stereotaxic frame (SRS-6; Narishige, Tokyo, Japan) that determines the coordinates of the mouse brain coinciding with the secondary somatosensory cortex 2 (S2) region. A small hole was made 3.8 mm lateral to the bregma, and a fine injection needle fitted to a 5.0 μl microsyringe (Hamilton, Reno, NE, USA) was advanced to a depth of 2.5 mm. The solution of [^125I]hAβ(1-40) was freshly prepared from lyophilized [^125I]hAβ(1-40) immediately before each experiment. Lyophilized [^125I]hAβ(1-40) was solubilized in H2O and then added to an equal volume of 2-fold concentration of extracellular fluid (ECF) buffer (244 mM NaCl, 50 mM NaHCO3, 6 mM KCl, 2.8 mM CaCl2, 2.4 mM MgSO4, 0.8 mM K2HPO4, 20 mM D-glucose, and 20 mM HEPES, pH 7.4). […] The applied solution (0.3 μl) containing [^125I]hAβ(1-40) and [^3H]dextran in an ECF buffer was administered into the S2 region over a period of 30 sec. After microinjection, the microsyringe was left in place for 4 min to minimize any backflow. At 5, 30 or 60 min after microinjection, ipsilateral (left) and contralateral (right) cerebrum and cerebellum were excised and dissolved in 2.0 ml 2 M NaOH at 60°C for 1 h. The ^125I and ^3H radioactivities of the samples were measured in a γ-counter (ART300, Aloka, Tokyo, Japan) for 3 min and a liquid scintillation counter (TRI-CARB2050CA, Packard Instruments, Meriden, CT, USA) for 5 min, respectively. The BEI was defined by Equation (1), and the percentage of substrate remaining in the ipsilateral cerebrum (100-BEI) was determined using Equation (2): [drawing 1] [drawing 2]\nThe apparent elimination rate constant (kel) was determined from the slope given by fitting a semilogarithmic plot of (100-BEI) versus time, using the nonlinear least-squares regression analysis program MULTI [27]."}, "[2]": {"tested_on": "TM-BBB4 cells", "assay": "In vitro internalization (acid-resistant binding) of [^125I]hAβ(1-40) in TM-BBB4 cells", "type": "cell-based, mouse", "description": "The TM-BBB4 cell line, established from transgenic mice harboring the temperature-sensitive SV40 large T-antigen gene, was used in this study. TM-BBB4 cells were cultured at 33°C in Dulbecco's modified Eagle's medium (DMEM; Nissui Pharmaceutical Co., Tokyo, Japan), supplemented with 20 mM NaHCO3, 2 mM L-glutamine, 15 ng/ml endothelial cell growth factor, 100 U/ml benzyl penicillin, […] streptomycin sulfate, and 10% fetal bovine serum (Moregate, Bulimba, Australia) in an atmosphere of 95% air and 5% CO2.\nTM-BBB4 cells were seeded on 24-well plates (Becton Dickinson, Bedford, MA, USA) at a density of 1.0 × 10^5 cells/2 cm^2/well and cultured for 24 h. The cells were treated with the indicated concentrations of forskolin and U0126 or vehicle for 24 h, and then internalization of [^125I]hAβ(1-40) into TM-BBB4 cells was examined as previously described. Briefly, the extent of TM-BBB4 cell-[^125I]hAβ(1-40) (0.15 μCi/200 μl in ECF buffer) binding was measured for 3 min at 37°C. After the indicated times, binding was terminated by removing the solution, and the cells were washed three times with 1 ml ice-cold ECF buffer. The cells were then incubated with 1 ml ice-cold acetate-barbital buffer (28 mM CH3COONa, 120 mM NaCl, 20 mM barbital sodium (pH 3.0) and 360 mOsm/kg) for 20 min at 4°C to remove [^125I]hAβ(1-40) bound to the cell surface. After incubation, the buffer was then recovered (acid-soluble fraction) and the cells were subsequently washed three times with ice-cold acetate-barbital buffer.\n(§1) Acid-resistant binding represents the amount of internalized [^125I]hAβ(1-40) in the TM-BBB4 cells. The cells were solubilized with 200 μl of 5 M NaOH overnight and neutralized with 200 μl of 5 M HCl. The ^125I radioactivity was measured using a γ-counter (ART310, Aloka, Tokyo, Japan). The protein content of the cultured cells was measured using a DC protein assay kit (Bio-Rad, Hercules, CA, USA) with bovine serum albumin as a standard."}, "[3]": {"assay": "Tolerability in mice: body weight, behavior, residual [^3H]dextran (BBB integrity)", "type": "in vivo", "details": "mouse, data not shown"}, "[4]": {"details": "after i.p. administration; cited from earlier work", "excerpt": "Reduction of Aβ in the CNS is considered to be a primary therapeutic target for AD."}, "[5]": {"parameters": "method as in PMID 2339131", "details": "mice receiving over 0.1 μg every other day for 2 weeks; cited from earlier work"}, "[6]": {"tested_on": "elimination of [^125I]hAβ(1-40) from rat brain", "details": "cited from earlier work", "description": "The present study examined the [^125I]hAβ(1-40) elimination from the brain for 60 min, and considerable degradation of injected [^125I]hAβ(1-40) might occur during this period."}, "[7]": {"tested_on": "TM-BBB4 cells", "assay": "Protein content of TM-BBB4 cells after the uptake (DC protein assay)", "type": "cell-based, mouse", "description": "as §1"}}, "note": "“And” between values parts separate entries of the source, which are not always exact repeats. Equal entries are not always repeated."}
{"smiles": "C=C1/C(=C\\C=C2/CCC[C@]3(C)[C@@H]([C@H](C)CCCC(C)(C)O)CC[C@@H]23)C[C@@H](O)C[C@@H]1O", "note": "[1,25(OH)2D3, 1α,25-dihydroxyvitamin D3]", "values": [{"measurement": "initial percentage of [^125I]hAβ(1-40) remaining in the mouse brain", "setting": "[1]; 1 μg/mouse i.p., 24 h, not significantly different from vehicle (114%)", "value": 118, "unit": "%"}, {"measurement": "percentage of [^125I]hAβ(1-40) remaining in brain compared with vehicle-treatment group", "setting": "[1]; mouse, 1 μg/mouse i.p., 24 h, 60 min after microinjection, time-profile experiment (Figure 1A)", "value": "significantly lower"}, {"measurement": "increase of [^125I]hAβ(1-40) elimination rate constant versus vehicle-treated group", "setting": "[1]; mouse, 1 μg/mouse i.p., 24 h after injection, p < 0.01", "value": "1.3 fold and 1.29 fold"}, {"measurement": "decrease of percentage of [^125I]hAβ(1-40) remaining in ipsilateral cerebrum versus vehicle-treated control", "setting": "[1]; mouse, single i.p. 0.2 μg/mouse, 24 h, 60 min after microinjection", "value": 12.9, "unit": "%"}, {"measurement": "effect on percentage of [^125I]hAβ(1-40) remaining versus vehicle-treated control", "setting": "[1]; mouse, 24 h after administration, 60 min after microinjection, n = 4-5 (Figure 2B)", "value": "significant reduction"}, {"measurement": "effect on percentage of [^125I]hAβ(1-40) remaining versus vehicle-treated control", "setting": "[1]; mouse, 48 h after administration, 60 min after microinjection, n = 4-5", "value": "no significant reduction"}, {"measurement": "effect on percentage of [^125I]hAβ(1-40) remaining versus vehicle-treated control", "setting": "[1]; mouse, 72 h after administration, 60 min after microinjection, n = 4-5", "value": "no significant reduction"}, {"measurement": "decrease of percentage of [^125I]hAβ(1-40) remaining in ipsilateral cerebrum versus vehicle-treated control", "setting": "[1]; mouse, single i.p. 5 μg/mouse, 24 h, 60 min after microinjection", "value": 19.5, "unit": "%"}, {"measurement": "apparent elimination rate constant (kel) of [^125I]hAβ(1-40) across the BBB", "setting": "[1]; mouse, single i.p. dose 1 μg/mouse, 24 h before microinjection, slope of (100-BEI) time profile 5-60 min, mean ± SD, n = 3-5, vehicle group 1.85 × 10^-2", "value": "0.0238 ± 0.0009", "unit": "min⁻¹"}, {"measurement": "effect on [^125I]hAβ(1-40) internalization by TM-BBB4", "setting": "[2]; data not shown", "value": "failed to provide consistent results"}, {"measurement": "adverse effects during repeated treatment", "setting": "[3]; 1 μg/day, from day 4", "value": "reduced body weight and abnormal behavior"}, {"measurement": "body weight", "setting": "[3]; single i.p. dose, up to 72 h after administration", "value": "No significant decrease"}, {"measurement": "time at which plasma concentration reaches a maximum", "setting": "[4]", "value": "≤ 2", "unit": "h"}, {"measurement": "time at which plasma concentration returns to baseline", "setting": "[4]", "value": 24, "unit": "h"}, {"measurement": "hypercalcemia (calcium level)", "setting": "[5]", "value": "over 12 mg/dL"}]}
{"smiles": "N[C@@H](Cc1ccc(O)cc1)C(=O)O", "note": "[L-tyrosine]", "values": [{"measurement": "inhibition of elimination of [^125I]hAβ(1-40) from rat brain", "setting": "[6]", "value": "not significantly inhibited"}]}
{"smiles": "N#CC(=C(/N)Sc1ccccc1N)/C(C#N)=C(/N)Sc1ccccc1N", "note": "[U0126]", "values": [{"measurement": "effect on forskolin-induced enhancement of [^125I]hAβ(1-40) acid-resistant binding", "setting": "[2]; U0126 25 μM with forskolin 10 μM for 24 h, [^125I]hAβ(1-40) 0.4 nM, 3 min, n = 4", "value": "suppressed"}, {"measurement": "reduction of acid-resistant binding of [^125I]hAβ(1-40) compared with the control", "setting": "[2]; pre-treatment with U0126 alone, 25 μM, 24 h, 3 min uptake, n = 4", "value": 11.2, "unit": "%"}, {"measurement": "protein content of the cells after the uptake", "setting": "[7]; 24 h treatment (U0126 25 μM, forskolin 10 μM), mean ± SEM, n = 4, control 89.8 ± 6.0", "value": "72.0 ± 7.0", "unit": "μg protein/well"}, {"measurement": "reduction of protein content of the cells after the uptake", "setting": "[7]; U0126 25 μM, 24 h, versus control 89.8 ± 6.0 μg protein/well", "value": 19.8, "unit": "%"}]}
{"smiles": "C=C[C@@]1(C)CC(=O)[C@]2(O)[C@@]3(C)[C@@H](O)CCC(C)(C)[C@@H]3[C@H](O)[C@H](OC(C)=O)[C@@]2(C)O1", "note": "[forskolin]", "values": [{"measurement": "decrease of percentage of [^125I]hAβ(1-40) remaining in mouse brain versus vehicle-treated group", "setting": "[1]; single i.p. 2.3 μg/mouse, 24 h, 60 min after microinjection, n = 4-5", "value": 16.4, "unit": "%"}, {"measurement": "decrease of percentage of [^125I]hAβ(1-40) remaining in mouse brain versus vehicle-treated group", "setting": "[1]; single i.p. 23 μg/mouse, 24 h, 60 min after microinjection, n = 4-5", "value": 16.4, "unit": "%"}, {"measurement": "effect on acid-resistant binding (internalization) of [^125I]hAβ(1-40) by TM-BBB4 cells", "setting": "[2]; pre-treatment 10 μM for 24 h, 0.1% DMSO, [^125I]hAβ(1-40) 0.4 nM, 3 min, 37°C, n = 4", "value": "significantly increased"}]}
{"smiles": "C[C@H](/C=C/[C@H](C)C(C)(C)O)[C@H]1CC[C@H]2/C(=C/C=C3C[C@@H](O)C[C@H](O)C3)CCC[C@]12C", "note": "[paricalcitol]", "values": [{"measurement": "effect on [^125I]hAβ(1-40) elimination from mouse brain", "setting": "[1]; data not shown", "value": "did not significantly enhance"}]}
